Patent US20210070748A1, “INHIBITORS OF BRUTONS TYROSINE KINASE” (Pharmacyclics LLC, priority 2015, published 2021)

Columns and labels:
[1] = biological target: T1, JAK3 (Homo sapiens, UniProt P52333); experiment: Inhibition of a panel of kinases, in vitro HotSpot kinase assay: JAK3; format: biochemical; conditions: D-compounds panel data; 1 μM ATP; read-out: IC50 JAK3
T1 sequence (P52333 1-1124): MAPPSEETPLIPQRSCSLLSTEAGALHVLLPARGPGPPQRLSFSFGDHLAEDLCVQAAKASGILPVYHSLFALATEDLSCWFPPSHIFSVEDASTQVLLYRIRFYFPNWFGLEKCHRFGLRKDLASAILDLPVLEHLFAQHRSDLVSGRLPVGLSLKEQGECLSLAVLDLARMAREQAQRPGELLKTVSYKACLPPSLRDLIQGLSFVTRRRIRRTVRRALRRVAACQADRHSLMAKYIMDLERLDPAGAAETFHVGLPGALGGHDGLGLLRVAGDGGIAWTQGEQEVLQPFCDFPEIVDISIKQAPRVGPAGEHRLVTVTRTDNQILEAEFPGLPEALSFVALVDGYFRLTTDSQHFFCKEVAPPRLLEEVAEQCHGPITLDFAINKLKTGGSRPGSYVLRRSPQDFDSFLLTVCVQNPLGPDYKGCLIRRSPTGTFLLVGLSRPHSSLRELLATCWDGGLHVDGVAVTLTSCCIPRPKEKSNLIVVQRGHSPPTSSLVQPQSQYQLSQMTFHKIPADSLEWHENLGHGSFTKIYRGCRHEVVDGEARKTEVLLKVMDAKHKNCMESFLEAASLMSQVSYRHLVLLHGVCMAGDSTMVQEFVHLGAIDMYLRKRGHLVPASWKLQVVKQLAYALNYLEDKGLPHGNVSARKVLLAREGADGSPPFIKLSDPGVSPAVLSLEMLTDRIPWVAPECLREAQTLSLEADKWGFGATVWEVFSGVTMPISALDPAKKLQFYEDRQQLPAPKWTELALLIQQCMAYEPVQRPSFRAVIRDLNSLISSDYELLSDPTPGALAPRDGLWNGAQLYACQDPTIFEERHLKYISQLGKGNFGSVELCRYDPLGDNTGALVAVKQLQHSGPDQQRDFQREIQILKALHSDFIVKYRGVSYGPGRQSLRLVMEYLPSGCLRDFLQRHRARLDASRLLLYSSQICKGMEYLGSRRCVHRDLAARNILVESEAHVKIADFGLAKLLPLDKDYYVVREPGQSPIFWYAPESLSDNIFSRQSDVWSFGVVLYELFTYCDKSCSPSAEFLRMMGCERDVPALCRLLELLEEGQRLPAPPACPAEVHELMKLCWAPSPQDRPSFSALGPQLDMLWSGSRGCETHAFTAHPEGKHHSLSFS

[2] = biological target: T2, ITK (Homo sapiens, UniProt Q08881); experiment: Inhibition of a panel of kinases, in vitro HotSpot kinase assay: ITK; format: biochemical; conditions: D-compounds panel data; 1 μM ATP
T2 sequence (Q08881 1-620): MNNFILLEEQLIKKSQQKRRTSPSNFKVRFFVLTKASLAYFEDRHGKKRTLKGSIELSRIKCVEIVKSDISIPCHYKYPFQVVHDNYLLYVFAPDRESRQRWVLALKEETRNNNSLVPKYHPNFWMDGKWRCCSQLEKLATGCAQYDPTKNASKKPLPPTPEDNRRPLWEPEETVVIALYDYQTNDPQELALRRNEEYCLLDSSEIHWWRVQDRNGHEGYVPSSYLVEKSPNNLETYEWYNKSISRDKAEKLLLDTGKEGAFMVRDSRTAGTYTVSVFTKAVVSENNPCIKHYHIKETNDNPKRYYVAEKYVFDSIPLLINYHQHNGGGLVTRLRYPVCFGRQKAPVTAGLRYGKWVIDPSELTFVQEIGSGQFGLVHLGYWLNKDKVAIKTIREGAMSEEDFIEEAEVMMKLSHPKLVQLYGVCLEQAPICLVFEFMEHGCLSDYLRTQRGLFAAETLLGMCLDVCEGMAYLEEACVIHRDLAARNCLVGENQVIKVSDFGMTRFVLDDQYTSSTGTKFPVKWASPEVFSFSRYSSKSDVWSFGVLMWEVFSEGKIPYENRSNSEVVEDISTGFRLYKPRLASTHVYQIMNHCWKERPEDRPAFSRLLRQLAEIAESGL
Procedure: The degree of inhibition of a panel of kinases is determined using the in vitro HotSpot kinase assay (purified enzymes, ^33P-ATP, an appropriate substrate and 1 μM ATP).

Row | SMILES | IC50 [1] [nM] | IC50 [2] [nM]
1 | C[C@@H]1[C@H](N2Cc3cc(C4CC4)ccc3C2=O)CCCN1c1cnc(C(N)=O)c(Nc2cnn(C)c2)n1 [Example D-36, 5-[(2R,3R)-3-(5-cyclopropyl-1-oxo-2,3-dihydro-1H-isoindol-2-yl)-2-methylpiperidin-1-yl]-3-[(1-methyl-1H-pyrazol-4-yl)amino]pyrazine-2-carboxamide] | 100 to 1000 | 100 to 1000
2 | C[C@@H]1[C@H](N2CCN(C)C2=O)CCCN1c1cnc(C(N)=O)c(Nc2ccc(C3(C)CCN(C4CC4)CC3)cc2)n1 [Example D-38, 3-{[4-(1-cyclopropyl-4-methylpiperidin-4-yl)phenyl]amino}-5-[(2R,3R)-2-methyl-3-(3-methyl-2-oxoimidazolidin-1-yl)piperidin-1-yl]pyrazine-2-carboxamide] | 10 to 100 | 10 to 100
3 | Cn1cc(Nc2nc(N3CCC[C@@H](NC(=O)c4ccc(C(C)(C)O)cc4)C3)nnc2C(N)=O)cn1 [Example D-39, 3-[(3R)-3-[4-(2-hydroxypropan-2-yl)benzamido]piperidin-1-yl]-5-[(1-methyl-1H-pyrazol-4-yl)amino]-1,2,4-triazine-6-carboxamide] | 100 to 1000 | 100 to 1000
4 | C[C@@H]1[C@H](NC(=O)c2ccc(C(C)(C)O)nc2)CCCN1c1cnc(C(N)=O)c(Nc2cnn(C)c2)n1 [Example D-40, 5-[(2R,3R)-3-[6-(2-hydroxypropan-2-yl)pyridine-3-amido]-2-methylpiperidin-1-yl]-3-[(1-methyl-1H-pyrazol-4-yl)amino]pyrazine-2-carboxamide] | 100 to 1000 | 100 to 1000
5 | C[C@@H]1[C@H](NC(=O)c2ccc(C(C)(C)O)nc2)CCCN1c1nnc(C(N)=O)c(Nc2cnn(C)c2)n1 [Example D-41, 3-[(2R,3R)-3-[6-(2-hydroxypropan-2-yl)pyridine-3-amido]-2-methylpiperidin-1-yl]-5-[(1-methyl-1H-pyrazol-4-yl)amino]-1,2,4-triazine-6-carboxamide] | 100 to 1000 | 100 to 1000
6 | C[C@@H]1[C@H](NC(=O)c2ccc(C3CC3)cc2)CCCN1c1cnc(C(N)=O)c(Nc2ccc(OC(F)(F)F)cc2)n1 [Example D-42, 5-[(2R,3R)-3-(4-cyclopropylbenzamido)-2-methylpiperidin-1-yl]-3-{[4-(trifluoromethoxy)phenyl]amino}pyrazine-2-carboxamide] | > 10000 | > 10000
7 | Cn1cc(Nc2nc(N3CCC[C@@H]4[C@H]3CCN4C(=O)c3ccc(C4CC4)cc3)cnc2C(N)=O)cn1 [Example D-44, 5-[(3aR,7aR)-1-(4-cyclopropylbenzoyl)-octahydro-1H-pyrrolo[3,2-b]pyridin-4-yl]-3-[(1-methyl-1H-pyrazol-4-yl)amino]pyrazine-2-carboxamide] | 1000 to 10000 | > 10000
8 | Cn1cc(Nc2nc(N3CCC[C@H]4[C@@H]3CCN4C(=O)c3ccc(C4CC4)cc3)cnc2C(N)=O)cn1 [Example D-45, 5-[(3aS,7aS)-1-(4-cyclopropylbenzoyl)-octahydro-1H-pyrrolo[3,2-b]pyridin-4-yl]-3-[(1-methyl-1H-pyrazol-4-yl)amino]pyrazine-2-carboxamide] | 1000 to 10000 | 1000 to 10000
9 | Cn1cc(Nc2nc(N3CCC[C@@H]4[C@H]3CCCN4C(=O)c3ccc(C4CC4)cc3)cnc2C(N)=O)cn1 [Example D-46, 5-I[(4aR,8aR)-5-(4-cyclopropylbenzoyl)-decahydro-1,5-naphthyridin-1-yl]-3-[(1-methyl-1H-pyrazol-4-yl)amino]pyrazine-2-carboxamide] | 1000 to 10000 | 1000 to 10000
10 | Cn1cc(Nc2nc(N3CCC[C@H]4[C@@H]3CCCN4C(=O)c3ccc(C4CC4)cc3)cnc2C(N)=O)cn1 [Example D-47, 5-[(4aS,8aS)-5-(4-cyclopropylbenzoyl)-decahydro-1,5-naphthyridin-1-yl]-3-[(1-methyl-1H-pyrazol-4-yl)amino]pyrazine-2-carboxamide] | > 10000 | > 10000
11 | C[C@@H]1[C@H](NC(=O)c2ccc(C3CC3)nc2)CCCN1c1cnc(C(N)=O)c(Nc2ccc(OC3CCC(F)(F)CC3)cc2)n1 [Example D-48, 5-[(2R,3R)-3-(6-cyclopropylpyridine-3-amido)-2-methylpiperidin-1-yl]-3-({4-[(4,4-difluorocyclohexyl)oxy]phenyl}amino)pyrazine-2-carboxamide] | 1000 to 10000 | > 10000
12 | C[C@@H]1[C@H](NC(=O)c2ccc(C(C)(C)N)cc2)CCCN1c1cnc(C(N)=O)c(Nc2cnn(C)c2)n1 [Example D-51, 5-[(2R,3R)-3-[4-(2-aminopropan-2-yl)benzamido]-2-methylpiperidin-1-yl]-3-[(1-methyl-1H-pyrazol-4-yl)amino]pyrazine-2-carboxamide] | 100 to 1000 | 10 to 100
13 | C[C@@H]1[C@H](NC(=O)N(C)C)CCCN1c1cnc(C(N)=O)c(Nc2ccc(N3CCN(C)CC3)cc2F)n1 [Example D-52, 5-[(2R,3R)-3-[(dimethylcarbamoyl)amino]-2-methylpiperidin-1-yl]-3-{[2-fluoro-4-(4-methylpiperazin-1-yl)phenyl]amino}pyrazine-2-carboxamide] | > 10000 | 100 to 1000
14 | C[C@@H]1[C@H](NC(=O)N(C)C)CCCN1c1cnc(C(N)=O)c(Nc2cn[nH]c2)n1 [Example D-53, 5-[(2R,3R)-3-[(dimethylcarbamoyl)amino]-2-methylpiperidin-1-yl]-3-[(1H-pyrazol-4-yl)amino]pyrazine-2-carboxamide] | 1000 to 10000 | 100 to 1000
15 | C[C@@H]1[C@H](NC(=O)c2ccc3c(c2)C(C)(C)CO3)CCCN1c1cnc(C(N)=O)c(Nc2cnn(C)c2)n1 [Example D-55, 5-[(2R,3R)-3-(3,3-dimethyl-2,3-dihydro-1-benzofuran-5-amido)-2-methylpiperidin-1-yl]-3-[(1-methyl-1H-pyrazol-4-yl)amino]pyrazine-2-carboxamide] | > 10000 | 100 to 1000
16 | CC1COc2cc(C(=O)N[C@@H]3CCCN(c4cnc(C(N)=O)c(Nc5cnn(C)c5)n4)[C@@H]3C)ccc2C1 (stereo partly drawn) [Example D-56, 3-[(1-methyl-1H-pyrazol-4-yl)amino]-5-[(2R,3R)-2-methyl-3-(3-methyl-3,4-dihydro-2H-1-benzopyran-7-amido)piperidin-1-yl]pyrazine-2-carboxamide] | > 10000 | 100 to 1000
17 | C[C@@H]1[C@H](NC(=O)c2cnn(C(C)(C)C)c2)CCCN1c1cnc(C(N)=O)c(Nc2cnn(C)c2)n1 [Example D-57, 5-[(2R,3R)-3-(1-tert-butyl-1H-pyrazole-4-amido)-2-methylpiperidin-1-yl]-3-[(1-methyl-1H-pyrazol-4-yl)amino]pyrazine-2-carboxamide] | 1000 to 10000 | 100 to 1000
18 | CN(C)C(=O)N[C@@H]1CCCN(c2cnc(C(N)=O)c(Nc3ccc(C4(C)CCN(C5CCCC5)CC4)cc3)n2)[C@@H]1CO [Example D-58, 3-{[4-(1-cyclopentyl-4-methylpiperidin-4-yl)phenyl]amino}-5-[(2S,3R)-3-[(dimethylcarbamoyl)amino]-2-(hydroxymethyl)piperidin-1-yl]pyrazine-2-carboxamide] | 1000 to 10000 | 1000 to 10000
19 | CN(C)C(=O)N[C@H]1CCCN(c2cnc(C(N)=O)c(Nc3ccc(C4(C)CCN(C5CCCC5)CC4)cc3)n2)[C@H]1CO [Example D-59, 3-{[4-(1-cyclopentyl-4-methylpiperidin-4-yl)phenyl]amino}-5-[(2R,3S)-3-[(dimethylcarbamoyl)amino]-2-(hydroxymethyl)piperidin-1-yl]pyrazine-2-carboxamide] | > 10000 | 1000 to 10000
